The results in this text go back to US20220331348A1, “METHOD OF PREPARING PENTACYCLIC TRITERPENOID SAPONINS AND DRUG COMPOSITION” (CHINA PHARMACEUTICAL UNIVERSITY, priority 2019, published 2022).

One experiment relates to AMPK in Huh-7 cells. The experiment in a line: Activation activity on AMPK in Huh-7 cells (Western Blot). The class given is cell-based. As to conditions: 12 h, relative to DMSO = 1. As to the method:
The activation activity of a compound on AMPK in Huh-7 cells was detected by using Western Blot.
Cell culture conditions: Huh-7 cells were cultured in an incubator with 5% CO2 at 37° C. in DMEM complete medium (containing 10% fetal calf serum and 1% streptomycin/penicillin).
Antibody: anti-AMPK (CST, 2532S); anti-pAMPK (CST, 2535S).
Western Blot experiment: the influence of the compound on phosphorylation level of the AMPK in the Huh-7 cells was detected: cells with more than 90% cells alive were taken for the experiment. In a 12-well plate, the Huh-7 cells were plated in the plate at 250000 cells per well, the plate was placed in the incubator with 5% CO2 at 37° C. for culture, an original culture medium was discarded after 12 h, a complete medium containing the pentacyclic triterpenoid saponin was added, a final concentration of subject pentacyclic triterpenoid saponin was set to be 10 μM, and an administration time was set to be 12 h. A positive control compound employs AICAR (100 μM), metformin (70 μM) or A-769662 (100 μM). Then proteins were extracted for Western Blot detection.
Experimental result: a Western Blot experimental result was subjected to gray scale scanning, a p-AMPK/AMPK ratio of negative control DMSO was defined as 1, and a p-AMPK/AMPK ratio of the subject compound was a relative ratio of a negative control group. The larger the numerical value was, the stronger the activation activity of the AMPK of the compound was.

Experiment [1] relates to ulcerative colitis model mice induced by DSS. Description: Dextran sulphate sodium salt (DSS) induced ulcerative colitis model mice. As to conditions: DSS-induced mice; dose not given; vs model group. The class given is in vivo, mouse. The method, then:
C57BL/6 male mice with 6-8 weeks old were selected; a control group was fed with purified water; and a model group, a treatment group and a positive control group were fed with purified water containing 2% dextran sulphate sodium salt (DSS) (36000-50000 M.Wt) for 7 days and then with the purified water for 3 days, and drug intervention was conducted at the same time. The mice in the control group and the model group were orally administered with carboxymethyl cellulose sodium as a placebo, the mice in the treatment group were orally administered with the ziyuglycoside II (purchased from Shanghai Boka Chemistry Technology Co., Ltd) (with a dosage of 5 mg/kg), and the mice in the positive control group were orally administered with 5-aminosalicylic acid as a clinical drug (5-ASA, purchased from Shanghai Sangon Biological Engineering Co., Ltd) (with a dosage of 100 mg/kg). In the administration process, weight changes, feces characters and hematochezia conditions of the mice were observed and recorded every day and were scored, and disease activity indexes were calculated (Disease activity index, DAI).
A scoring rule and a calculation method were as follows: DAT=(weight score+diarrhea score+occult blood score)/3, wherein weight score: 0 (weight gained or unchanged), 1 (weight lost by 1-5%), 2 (weight lost by 6-10%), 3 (weight lost by 11-15%), 4 (weight lost by 15% or above); diarrhea score: 0 (normal feces), 2 (soft feces), 4 (feces sticking anuses or diarrhea); and occult blood score: 0 (negative occult blood), 2 (positive occult blood), and 4 (visible bleeding). Comparing differences in DAI of various groups, it can be known that the ziyuglycoside II has significant prevention and treatment effects on ulcerative colitis of the mice modeled by the dextran sulphate sodium salt (DSS).
The above mice were sacrificed by cervical dislocation at day 11, colon tissues were harvested, lengths of the colon tissues were measured for statistical summary, and differences in colon length of various groups were compared, from which, the ziyuglycoside II has significant prevention and treatment effect on the ulcerative colitis model mice.
Middle segments, with lengths of about 1 cm, of the colon tissues of the above mice were selected, soaked in a formalin solution for fixing overnight, embedded with paraffin and sliced, and the slices were subjected to HE staining. […] Particularly, compared with the positive drug group, the ziyuglycoside II has the advantage of maintaining a thickness of a muscular layer.
10 mg of proximal rectum segments of the colon tissues of the above mice were selected, PBS was added for homogenization, and centrifugation was conducted for taking a supernate. The supernate was subjected to ELISA detection, and protein quantification was conducted for inflammatory factors TNF-α and IL-lb.
10 mg of colon tissues of the above mice were selected for detection of ROS therein.
When the ulcerative colitis occurs, the inflammatory factors may destruct tight junction between intestinal tracts, and destruction of the tight junction enables functions of mucosal barriers to be lost and accelerates development of the diseases. 5 mg of colon tissues of the above mice were selected for qPCR analysis. […] This hints that the ziyuglycoside II further has the efficacy of increasing the expression level of the tight junction and then protecting a structure of each colon. […] Therefore, the ziyuglycoside II is expected to be useful for preparing the drug for preventing or treating the inflammatory bowel diseases such as the ulcerative colitis.

Experiment [2] has as its system TNBS modeled Crohn's disease model mice. The experiment in a line: 2,4,6-trinitrobenzene sulfonic acid (TNBS) modeled Crohn's disease model mice. The class given is in vivo, mouse. As to conditions: dose not given. The method, then:
C57BL/6 male mice with 6-8 weeks old were selected and randomly divided into a control group, a mode group, a treatment group and a positive control group. Expect for the control group, after the mice in the rest groups anesthetized with isoflurane, hoses were carefully inserted into colons of the mice from anuses, and […] of 1.5% 2,4,6-trinitrobenzene sulfonic acid (TNBS) was slowly injected. Before the hoses were pulled out, the mice were placed upside down for 1 min. First intragastric administration was conducted at the day of enema treatment, the mice in the control group and the model group were orally administered with carboxymethyl cellulose sodium as a placebo, the mice in the treatment group were orally administered with the ziyuglycoside II (purchased from Shanghai Boka Chemistry Technology Co., Ltd) (with a dosage of 5 mg/kg), and the mice in the positive drug group were orally administered with 5-aminosalicylic acid as a clinical drug (5-ASA, purchased from Shanghai Sangon Biological Engineering Co., Ltd) (with a dosage of 100 mg/kg). Administration was continuously conducted for 7 days. In the administration process, the states of the mice were observed every day, and weight changes of the mice were recorded.
Differences in weight change of the mice in various groups were compared, from which, ziyuglycoside II has the treatment effect on the 2, 4, 6-trinitrobenzene sulfonic acid (TNBS) modeled Crohn's disease model mice.
The above mice were sacrificed by cervical dislocation at day 8, colon tissues were harvested, lengths of the colon tissues were measured for statistical summary, and differences in colon length of various groups were compared, from which, the ziyuglycoside II has significant treatment effect on the Crohn's disease model mice. […] 10 mg of proximal rectum segments of the colon tissues of the above mice were selected, PBS was added for homogenization, and centrifugation was conducted for taking a supernate. The supernate was subjected to ELISA detection, and protein quantification was conducted for inflammatory factors TNF- and IL-1. […] Myeloperoxidase (MPO) is an enzyme specific to neutrophils, and the amount of the neutrophils in the intestinal tracts may be reflected by detecting the MPO level. 5 mg of proximal rectum segments of the colon tissues of the above mice were selected, PBS was added for homogenization, and the content of the MPO in a homogenate was detected with a MPO kit (purchased from Nanjing Jiancheng Bioengineering Institute). […] Therefore, the ziyuglycoside II is expected to be useful for preparing the drug for preventing or treating the inflammatory bowel diseases such as the Crohn's disease.

`CC1(C)CC[C@]2(C(=O)O)CC[C@]3(C)C(=CCC4[C@@]5(C)CC[C@H](O[C@@H]6O[C@H](C(=O)O)[C@@H](O)[C@H](O)[C@H]6O)C(C)(C)[C@@H]5CC[C@]43C)[C@@H]2C1` (stereo partly shown) [(III), calunduloside E]: in the experiment on AMPK in Huh-7 cells (10 μM, Western Blot gray scale), the pAMPK/AMPK ratio came to 1.54.

With `CC1(C)CC[C@]2(C(=O)O)CC[C@]3(C)C(=CC[C@@H]4[C@@]5(C)CC[C@H](O[C@@H]6O[C@H](C(=O)O)[C@@H](O)[C@H](O[C@@H]7OC[C@@H](O)[C@H](O)[C@H]7O)[C@H]6O)C(C)(C)[C@@H]5CC[C@]43C)[C@@H]2C1` [(IV), kochioside Ic], the pAMPK/AMPK ratio with AMPK in Huh-7 cells (10 μM, Western Blot gray scale) is on record as 1.75.

In the case of `CC1(C)CC[C@]2(C(=O)O)CC[C@]3(C)C(=CCC4[C@@]5(C)CC[C@H](O[C@@H]6OC[C@H](O)[C@H](O)[C@H]6O)C(C)(C)[C@@H]5CC[C@]43C)[C@@H]2C1` (stereo partly shown) [(XIV), asperosaponin C], in the experiment on AMPK in Huh-7 cells (10 μM, Western Blot gray scale), the pAMPK/AMPK ratio came out at 2.23.

On to `C[C@@H]1OC(O[C@H]2[C@H](O[C@H]3CC[C@]4(C)[C@H]5CC=C6[C@@H]7CC(C)(C)CC[C@]7(C(=O)O)CC[C@@]6(C)[C@]5(C)CC[C@H]4C3(C)C)OC[C@H](O)[C@@H]2O)[C@H](O)[C@H](O)[C@H]1O` (stereo partly drawn) [(XV), β-hederin], for which, in the experiment with AMPK in Huh-7 cells (10 μM, Western Blot gray scale), the pAMPK/AMPK ratio is listed as 2.87.

Regarding `CC1(C)CC[C@]2(C(=O)O)CC[C@]3(C)C(=CC[C@@H]4[C@@]5(C)CC[C@H](O[C@@H]6O[C@H](CO)[C@@H](O)[C@H](O)[C@H]6O)C(C)(C)C5CC[C@]43C)[C@H]2C1` (stereo partly shown) [(XVI), hederin A2], in the experiment with AMPK in Huh-7 cells (10 μM, Western Blot gray scale), the pAMPK/AMPK ratio is reported as 2.05.

With `NC(=O)c1ncn([C@@H]2O[C@H](CO)[C@@H](O)[C@H]2O)c1N` [AICAR, reference compound], in the experiment on AMPK in Huh-7 cells (positive control 100 μM), the pAMPK/AMPK ratio is given as 1.47.

As for `N#Cc1c(O)c2c(-c3ccc(-c4ccccc4O)cc3)csc2[nH]c1=O` [Compound A-769662, A-769662, reference compound], in the experiment on AMPK in Huh-7 cells (positive control 100 μM), the pAMPK/AMPK ratio came out at 2.59.

Take `CN(C)C(=N)N=C(N)N` [Metformin, reference compound]: the pAMPK/AMPK ratio with AMPK in Huh-7 cells (positive control 70 μM) was found to be 1.22.

Regarding reinioside C [(IX)], in the experiment on AMPK in Huh-7 cells (10 μM, Western Blot gray scale), the pAMPK/AMPK ratio was 1.88. In experiment [1], the “DAI scores of the treatment group” value is listed as “obviously lower than those of the model group”. Further, in experiment [2], the “colon length of the treatment group compared with the control group” value is given as “nearly no difference”. Further, in experiment [2] (vs model group), the “expression level of inflammatory factor IL-1β” value is “significantly lower than those of the model group” and the “expression level of inflammatory factor TNF-α” value is given as “significantly lower than those of the model group”.
